The source of these data is patent US7052850B2, “Isolated human EDG-4 receptor” (priority 1997, dated 2006).

Assay [1] has as its target T1, human EDG-4 (Homo sapiens, UniProt O95136, F273L/I205V).
T1 construct: a 1059 bp open reading frame (excluding the stop codon) corresponding to the complete human edg-4 coding region; expressed in transfected cells; host or cells: 293-EBNA
Kind of assay: NF-κB luciferase reporter in 293-EBNA cells, human EDG-4. It counts as cell-based. The note with it: Assay 3; pC3-hedg4#36; 3 μM; 6 hours.
Procedure: The protocol described in Example 11 for Assay 1 was allowed except for the following changes: • 1) 100 mm plates of 293-EBNA ith a confluency of ˜80% were used for transfection, • 2) SRE Cotransfection: 0.5 μg of 2XSREtk-p4Luc-zeo reporter DNA and 3.5 μg pcDNA3, EDG-1, EDG-3 pC3-hE3P2, different from the clone used in Assay 2 of Example 11) or the newly cloned human EDG-4 (pC3-hedg4#36); NF-κB Cotransfection: 2 μg 6XNFκBtk-p4LUc-zeo reporter DNA and 2.0 μg pcDNA3, EDG-1, EDG-3 (pC3-hE3HP2), or EDG-4 (pC3-hedg4#36). Expression plasmid and reporter plasmid DNA samples were combined and diluted in 750 μl of DMEM/F12 (serum free media) and 20 μl Plus Reagent (Lipofectamine Plus Kit, Life Technologies Cat. 109640-13), and incubated at room temperature for 15 min. • 3) 30 μl Lipofectamine Reagent (Lipofectamine Plus Kit) was diluted in 750 μl DMEM/F12. The diluted Lipofectamine was then combined with the DNA/Plus mixture and incubated at room temperature for 15 min. • 4) The 293-EBNA plates were washed once with PBS and 5 ml DMEM/F12 was added to each plate. • 5) DNA/Plus/Lipofectamine mixture was added to each plate of 293-EBNA cells. […]

Assay [2] has as its system Human Umbilical Vein Endothelial Cells (HUVEC). Kind of assay: IL-8 response in primary cultured HUVEC. The note with it: 5 μM, 6 hr. It counts as cell-based. The protocol: Cells: HUVEC (Clonetics, Cat. CC-2519) were passaged according to supplier's instructions and used at passage 3. Cells were plated at 20,000 cells/well into 24-well plates. […] LPA induced a 3-fold IL-8 increase at this concentration. […] As shown below in FIG. 23, three cloned edge receptors respond to LPA as an agonist, and all three appear to transduce NF-κB activation in an agonist-dependent manner.

Another assay has as its system human EDG-3. Briefly: NF-κB luciferase reporter in 293-EBNA cells, human EDG-3. It counts as cell-based. The following applies: for NF-κB response: original human EDG-3 clone (Assay 2). For orientation: A reporter such as luciferase makes a cellular process visible.
The subject of a further assay is 293-EBNA cells. Briefly: IL-8 production in 293-EBNA cells. It counts as cell-based. The note with it: untransfected.
The target of the next assay is rat EDG-4 (Rattus norvegicus, UniProt P47752). Briefly: NF-κB-tk-p4Luc luciferase reporter in 293-EBNA cells, rat EDG-4. It counts as cell-based. Further details: transient transfection with a eukaryotic expression vector expressing full-length rat edg-4 cDNA; expressed in transfected cells; host or cells: 293-EBNA.
rat EDG-4, sequence (P47752 whole entry): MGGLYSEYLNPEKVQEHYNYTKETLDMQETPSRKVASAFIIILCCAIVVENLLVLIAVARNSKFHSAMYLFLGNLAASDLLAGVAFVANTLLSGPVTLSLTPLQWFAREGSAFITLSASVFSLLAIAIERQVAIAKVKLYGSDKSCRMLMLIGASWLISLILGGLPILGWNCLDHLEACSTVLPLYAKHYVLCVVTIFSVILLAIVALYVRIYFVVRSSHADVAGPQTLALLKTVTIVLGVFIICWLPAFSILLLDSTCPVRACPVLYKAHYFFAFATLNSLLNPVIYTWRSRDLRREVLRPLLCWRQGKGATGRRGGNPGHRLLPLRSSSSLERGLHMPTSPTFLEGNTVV
Another assay has as its system HL-60 cells. Briefly: IL-8 response in HL-60 cells. It counts as cell-based, human. The note with it: 1, 6 or 24 hours, S1P or LPA up to 3 μM, TNF-α 10 ng/ml.
Assay [3] deals with T1, human EDG-4. Kind of assay: Relative potency and efficacy of agonists, luciferase (SRE) reporter in 293-EBNA cells expressing recombinant human EDG-4. It counts as cell-based. The following applies: for Rank (EMax): rank of efficacy. The protocol:
Transfection of EDG-4, expression, pretreatment and treatment of 293-EBNA cells expressing recombinant human EDG-4 was carried out essentially as described in “Example 11. […] Results were tabulated in Microsoft Excel, and analyzed with GraphPad Prism sotfware. […] The luciferase response was expressed as fold response, after subtracting any endogenous response in pcDNA3-transfected cells at a given concentration of compound.

For the next assay, the system named is HeLa cells. Kind of assay: IL-8 response (IL-8 ELISA) in HeLa cells. It counts as cell-based, human. How it is done: • Cells: HeLa (adenocarcinoma, human) • Media: DMEM/F12+10% FBS Adherent • 1) Cells were seeded at 0.2×10^6 cells/well in 6-well plates. • 2) Confluency of cells after 24–32 hrs was between 60–70%. B. Overnight Serum-Starvation • 1) Media was aspirated (no PBS wash). • 2) 1.5 ml 0.5% FBS media was added to each well. C. Treatments and Collection • 1) Made up all required solutions in 0.5% FBS media (control). Handling of […] for use in NF-κB experiments requires that sonication, commonly used to resuspend LPA, not be done; NF-κB may be activated by lipid peroxides created through vigorous frothing. Solutions:
D. Detection of Interleukin-8 (IL-8) using an IL-8 ELISA (Enzyme-Linked ImmunoSorbent Assay). • 1) The Quantikine Human IL-8 Immuno Assay Kit was obtained from R&D Systems (Cat. D8050). • 2) The kit and all samples were allowed to equlibrate to room temperature prior to use. • 3) All reagents were provided in the kit and prepared according to the instructions provided. • 4) The assay procedure was followed as recommended in the kit for cell culture supernatant samples. • 5) ELISA was performed on 50 μl samples of culture supernatant and duplicate samples were measured for each well. Each treatment was performed on triplicate wells. • 6) Plates were read on UV max kinetic microplate reader (Molecular Devices), set to 450 nm and correction set to 575 nm, using Wsoftmax sotware version 2.34.
• 1) Cells were seeded at 2.5×10^4 cells/well in 24-well plates. • 2) Confluency of cells after 24–32 hrs was between 60–70%. B. Overnight Serum-Starvation and PTX Pre-Treatment • 1) Media was aspirated (no PBS wash). • 2) 0.5 ml 0.5% FBS media was added to all wells not requiring PTX pre-treatment. • 3) For well requiring PTX; 0.5 ml 0.5% FBS media containing 50 ng/ml PTX (1 volume PTX (RBI Cat. P140): 1 volume DTT, incubate 37° C. for 30 minutes then dilute to 50 ng/ml) was added. C. Treatments and Collection • 1) Made up all required solutions in 0.5% FBS media (control). […] D. Refer to Procedure #1 For HeLa Cells (D).
(In an ELISA, binding on a coated surface is turned into a signal by an enzyme label.)

The next assay addresses T2, EDG-6 (Homo sapiens, UniProt Q9HBW0).
T2 construct: expressed in transfected cells; host or cells: 293-EBNA
Briefly: AP-1 reporter in 293-EBNA cells, EDG-6. It counts as cell-based. The note with it: 10 μM LPA. The text has this:
LPA, like S1P, is abundant in serum, but not plasma. Moreover, LPA is produced as a consequence of phospholipase A2 with or without the contribution of phospholipase D (depending on the phospholipid substrate). […] To date we have identified three subtypes of edg receptors that respond to LPA as an agonist. These are EDG-2, […] (referred to also as LPA1, LPA2 and LPA3, respectively (Chun, J, Contos, JJA and Munroe, DG. 1998. A growing family of receptor genes for lysophophatidid acid (LPA) and other lyso-phospholipids. Cell Biochem Biophys (in press)). The EDG-5 receptor is set out in co-pending U.S. application Ser. No. 08/997,803 to MUNROE et al., incorporated herein to reference and the amino acid sequence and cDNA sequence for the EDG-6 receptor is set out in FIGS. 21 and 22, respectively. To determine whether these receptors might mediate inflammatory responses, each was cotransfected separately with SRE, NF-κB or AP-1 reporter genes. […] This transcription factor, like NF-κB has been implicated in inflammatory and neoplastic signal transduction, though the gene targets of its action are largely distinct from those of NF-κB (Adcock I M. 1997. Transcription factors as activators of gene transcription; AP-1 and NF-κB. Monaldi Arch Chest Dis 52:178–186. Review). […]

A word on the Emax: it is the maximal effect, on the per cent scale that the assay sets.

Entries after “also recorded” stand apart in the source; their conditions may differ.

T1 sequence (O95136 whole entry I205V/F273L): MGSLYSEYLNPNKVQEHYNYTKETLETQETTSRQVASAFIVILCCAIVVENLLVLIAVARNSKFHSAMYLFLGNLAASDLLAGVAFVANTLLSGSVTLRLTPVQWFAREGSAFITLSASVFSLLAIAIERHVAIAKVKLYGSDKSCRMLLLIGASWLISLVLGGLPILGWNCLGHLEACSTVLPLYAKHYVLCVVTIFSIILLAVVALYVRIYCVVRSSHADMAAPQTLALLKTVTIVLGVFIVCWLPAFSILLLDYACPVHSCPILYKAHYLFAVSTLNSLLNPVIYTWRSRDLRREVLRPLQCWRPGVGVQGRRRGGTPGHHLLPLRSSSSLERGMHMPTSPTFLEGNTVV
T2 sequence (Q9HBW0 with tags, fused parts or gaps): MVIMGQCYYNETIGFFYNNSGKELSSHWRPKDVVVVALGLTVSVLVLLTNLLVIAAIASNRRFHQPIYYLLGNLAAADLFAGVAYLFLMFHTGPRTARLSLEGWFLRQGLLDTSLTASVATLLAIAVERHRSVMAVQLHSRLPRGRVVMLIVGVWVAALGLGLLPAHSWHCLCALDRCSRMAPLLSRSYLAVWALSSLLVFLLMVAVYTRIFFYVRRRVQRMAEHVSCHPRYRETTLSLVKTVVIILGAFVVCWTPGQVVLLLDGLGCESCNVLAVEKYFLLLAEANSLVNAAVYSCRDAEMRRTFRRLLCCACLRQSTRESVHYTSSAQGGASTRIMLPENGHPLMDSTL
Procedure for human EDG-3: The above protocol for assay 1 was followed except for the following changes: • 1) 100 mm plates of 293-EBNA with a confluency of ˜80% were used for transfection. • 2) 3 μg NFκB-tk-p4Luc reporter DNA and 3 μg pC3-hedg1, pC3-hedg 3, pC3-redg4, pC3-hedg5 or pcDNA3 DNA was diluted in 240 μl OPTI-MEM (Gibco; Cat. 31985-062) • 3) 22 μl lipofectamine (Gibco; Cat. 1 8324-020) was diluted in 240 μl OPTI-MEM. • 4) The 293-EBNA plates were washed once with PBS and 7 ml OPTI-MEM was added to each plate. • 5) DNA/lipofectamine mixture was added to each plate of 293-EBNA cells. The plates were left for 4 hrs at 37° C. in a 5% CO2 incubator. Day 2: • 1) 0.01×10^6 cells were plated per well of 96-well Blackview plate coated with polyD-lysine. No cells were plated in the outside wells of the 96-well plate. Day 3: The following treatments were used for all transections:
Expression plasmid and reporter plasmid DNA samples were combined and diluted in 750 μl of DMEM/F12 (serum free media) and 20 μl Plus Reagent (Lipofectamine Plus Kit, Life Technologies Cat. 109640-13), and incubated at room temperature for 15 min. • 3) 30 μl Lipofectamine Reagent (Lipofectamine Plus Kit) was diluted in 750 μl DMEM/F12. The diluted Lipofectamine was then combined with the DNA/Plus mixture and incubated at room temperature for 15 min. • 4) The 293-EBNA plates were washed once with PBS and 5 ml DMEM/F12 was added to each plate. • 5) DNA/Plus/Lipofectamine mixture was added to each plate of 293-EBNA cells. The plates were left for 3 hr at 37° C. in a 5% CO2 incubator. • 6) The transfection medium was replaced with serum-free DMEM/F12 for cells transfected with 2XSREtk-p4Luc-zeo reporter DNA and with DMEM/F12 plus 10% FBS for cells transfected with 6XNFκBtk-p4Luc-zeo reporter DNA. • Day 2. • 2) Transfected cells were harvested by trypsinization and 50,000 cells per well were plated in 96-well Blackview plates coated with poly D-lysine Becton Dickinson Labware, Cat. 40640). […]
Source text for rat EDG-4: First, the NF-κB response element was reconstructed in a new reporter construct (p4Luc) suitable for stable maintenance as an episome in primate cells. […] The p4-Luc reporter used the backbone of pREP4 (Invitrogen; Cat. V004-50), which contains the EBV orgin of replicaiton (EBVoni), as well as the EBNA-1 viral antigen required to maintain EBVoti containing plasmids as stable episoms in primate cells, and a prokayotic selection marker. A dominant eukaryotic selection marker for zeocin resistance was substituted for expression in pREP4. The promoter of pREP4 was then excised and replaced with a multi-cloning site for introduction of promoter/enhancer inserts. The NF-κB inser of the previous CAT reporter was subcloned into this site and all cloning junctions were sequenced to verify the structure of the plasmid, called NF-κB-tk-p4Luc.
• 1) 150 mm plates of 293-EBNA obtained from Invitrogen (Cat. R620-07) with a confluency of 18 80% were used for transfection. • 2) 6.6 μg NF-κB-tk-p4Luc reporter DNA and 6.6 μg of pC3-redg4 (expressing rat EDG-4), or pcDNA3 DNA was diluted in 500 μl OPTI-MEM (Gibco; Cat. 31985-062) • 3) 96.8 μl Lipofectamine (Gibco; Cat. 18324-020) was diluted in 500 μl of OPTI-MEM. • 4) The 2 solutions were mixed gently and the tube was incubated for 30 min at room temperature. • 5) The 293-EBNA plates were washed once with PBS and 13 ml OPTI-MEM was added to each plate, • 6) 6 ml OPTI-UMM was added to each transfection tube and this was added to a plate of 293EBNA cells. The plates were left for 4 hrs at 37° C. in a 5% CO2 incubator. • 7) After 4 his, the media was removed and replaced with frest 10% FBS media. Day 2: • 1) Transfected cells were washed, typsinized with 1× tryspin, resuspended in 10 ml media and counted. • 2) 0.02×10 ^6 cells were plated per well of a 96-well Blackview plate coated with polyD-lysine. No cells were plated in the outside wells of the 96-well plate. Two 96-well plates were seeded for each transfection. Day 3: • 1) Cells were washed with PBS and 140 μl serum-free media (SFM) added to each well. Plates were incubated in 37° C. incubator for 6 hrs. • 2) After 6 hrs, media was removed and cells treated with compounds diluted in 0.5% FBS media (140 μl added to each well).
Day 4 Luciferase Assay • 1) Luclite kit (Packard; Cat. 6016911) was used for luciferase assay. All reagents were brought to room temperature before use. • 2) Supernatant was transferred to a new 96-well plate and stored at −20 C. for rupture IL-8 measurement. • 3) 50 μl 0.5 M HEPES pH 7.8 buffer (1 mM MgCl21 mM CaCl2) was addeded to all wells of 96-well plate. Black adhesive backing (polyfitronics) was aligned to the bottom of the viewplate. • 4) Luclite substrate was made up by adding 10 ml substate diluent to 1 vial lyophilized substrate. Reconstituted substrate was kept under a dark container. 50 μl substrate was added to each well. • 5) A clear adhesive plate sealer was adjusted on to the viewplate and sealer rubbed over the plate with a Kimwipe. The plate was shaken on a plate shaker at 500 rpm for 5 seconds right side up and then upside down. A stop plate was placed on top of the blackview plate to keep it in the dark. • 6) Plates were incubated at room temperature for 30 min. • 7) After incubation, plates were counted in a 12 detector Packard Top Count on a program without dark delay.

Regarding `CCCCCCCCCCCCC/C=C/[C@@H](O)[C@@H](N)COP(=O)(O)O` [S1P, sphingosine 1-phosphate], on human EDG-4 [1], the “induction of the NF-κB reporter gene” value turned out to be 4.5 fold. Further, in assay [2], the “IL-8 levels, increase over untreated controls” value is “approximately 5 fold”. The NF-κB response result in the assay with human EDG-3 is reported as “did not produce a NF-κB response”. Also, the IL-8 production entry in the assay with 293-EBNA cells was “no IL-8 production”. The “increase in luciferase activity” value was 2 fold at rat EDG-4 (Assay 1, 1 μM S1P, 24 hrs); 4–4.5 fold at rat EDG-4 (Assay 1, 5 μM or 10 μM S1P, 24 hrs); 3.5 fold at rat EDG-4 (Assay 2, 3 μM). In the assay on HL-60 cells, the IL-8 release result was “no such release; also recorded: fail to produce IL-8 below the cytotoxic threshold”. The “agonist character at EDG-4” value on human EDG-4 [3] is “full agonists”. Further, the maximal response (Emax) at human EDG-4 [3] (293-EBNA, relative efficacy, read-out: EMax (Percent)) was 86.7%. For the same compound, the “Rank (EMax)” value on human EDG-4 [3] was determined as 2.
With `CCCCCCCCCCCCC/C=C/[C@@H](O)[C@@H](N)COP(=O)([O-])OCC[N+](C)(C)C` [SPC, sphingosylphosphorylcholine], the “induction of the NF-κB reporter gene” value on human EDG-4 [1] was 9 fold. In assay [2], the “IL-8 levels, increase over untreated controls” value is “Marginal increases”. The “induction of the NF-κB reporter gene compared to untreated controls” value in the assay with human EDG-3 (Assay 3, pancreas EDG-3 clone, 3 μM) was “about 8 fold”. Besides, the NF-κB response entry in the assay with human EDG-3 is listed as “did not produce a NF-κB response”. The “induction of NF-κB reporter” value at rat EDG-4 (Assay 1, 24 hrs) was “induced the reporter gene”. Further, the “increase in luciferase activity” value at rat EDG-4 (Assay 2, 3 μM) stood at 4 fold. On human EDG-4 [3], the “agonist character at EDG-4” value was “full agonists” and the “Rank (EMax)” value came out at 1. Further, at human EDG-4 [3] (relative efficacy), the “EMax (Percent)” value was found to be 100%. The IL-8 induction entry in the assay with HeLa cells (6 hours, concentration series) is listed as “can induce IL-8 in HeLa cells in a concentration-dependent manner; also recorded: significantly induced IL-8 production”.
For the compound lysophosphatidic acid [LPA], in the assay on 293-EBNA cells, the IL-8 production result is “no IL-8 production”. At EDG-6, the “induction of the AP-1 reporter” value is “strongly induced”. Besides, the IL-8 release entry in the assay with HL-60 cells was “no such release”. Moreover, the IL-8 response entry with HeLa cells (1 and 10 μM, 1, 6 or 24 hours) was “not”.
